Patent publication US20200206349A1, “Immunothermosensitive Composite, Kit For Treating Cancer, And Use Thereof” (National Tsing Hua University, priority 2018, published 2020)

Assays:
CT26 cells = test: Cytotoxicity, CellTiter-Glo cell viability assay; type: cell-based, murine; conditions: 0.625 μg/mL to 10 μg/mL, 24 hours
Method: The experiment further includes untreated CT26 cells, the CT26 cells treated with free R848 or the CT26 cells treated with the carrier PANI-GCS as a control. […] The CT26 cells are seeded in 96-well plates at 1×10^4 cells/well for 24 hours. […] The viability of the CT26 cells is evaluated by the CellTiter-Glo® Luminescent Cell Viability Assay kit (Promega, Madison, Wis., USA).

BMDCs = test: Proinflammatory cytokines secreted by BMDCs (bead arrays); type: cell-based, Balb/c mice
Method: The dendritic cells used in the experiment are dendritic cells differentiated from bone marrow cells (BMDC). […] After 10 days, suspended immature BMDCs are collected for further experiments. […] The cellular uptake of the f-PANI-GCS-R848 by the BMDCs is measured by flow cytometry and immunofluorescence staining. The experiment further includes the BMDCs treated with medium only as a control. Flow cytometry is performed to measure the cell uptake of f-PANI-GCS-R848 by BD Accuri™ C6 flow cytometer (BD Biosciences, San Jose, Calif., USA), and data are analyzed using FlowJo (Treestar, Ashland, Oreg., USA). In immunofluorescence staining, LysoTracker is used as a cell marker for endosome. The BMDCs are incubated with LysoTracker™ Red DND-99 (Thermo Fischer Scientific) containing medium for 2 hours, washed, and stained with 4′,6-diamidino-2-phenylindole (DAPI) in PBS for 10 minutes. Finally, the BMDCs are observed and imaged under a confocal laser scanning microscopy (CLSM, LSM 780, Carl Zeiss, Jena, Germany). […] The BMDCs and the culture supernatants are then collected separately. The expression of mature dendritic cell markers CD80 and CD86 in the treated BMDCs are analyzed by flow cytometry, and the concentrations of inflammatory cytokines secreted by mature dendritic cells in the supernatant are measured by […] beads arrays (CBA, BD Bioscience). The experiment further includes the BMDCs treated with medium only as negative controls (represented as “PBS”). The flow cytometry includes follow steps. The BMDCs are incubated with APC-conjugated anti-mouse CD80 antibody (eBioscience) or FITC-conjugated anti-mouse CD86 Antibody (eBioscience), and then analyzed by BD Accuri™ C6 flow cytometer.

CT26 primary tumor = test: Animal treatment test: primary tumor size and survival; type: in vivo, Balb/c mice; conditions: without NIR; treated day 14, 21, 28
Method: Experimental animals used in the experiments are Balb/c mice (6-8 weeks old), which are purchased from BioLASCO Taiwan Co., Ltd. (Taipei, Taiwan). All the animal experiments are performed according to “Guide for the Care and Use of Laboratory Animals” developed by the Institute of Laboratory Animal Resources, National Research Council. Balb/c mice are inoculated with 1×10^6 CT26 cells subcutaneously on their right flanks (primary tumor). Fourteen days later when the tumor diameter is about 5 mm (or the tumor volumes reach 150-200 mm^3), the Balb/c tumor mice are established and further used to test the cancer treatment effects on the immunothermosensitive composition and the kit for treating cancer of the present disclosure, and whether the immunothermosensitive composition and the kit for treating cancer of the present disclosure can achieve the dual effects of hyperthermia therapy and immunotherapy.
Further, the cancer treatment effects on the immunothermosensitive composition and the kit for treating cancer of the present disclosure is confirmed in the experiment. […] The size of each primary tumor, which is estimated as length×width×height×π/6, is assessed using a pair of caliper every 2-3 days. […] The Balb/c tumor mice with the rechallenged tumor are no longer treated, but the size of each rechallenged tumor is observed and recorded. […]

[1] = at 24 hours, 5 μg/mL free R848, 50 μg/mL PANI-GCS-R848
[2] = at 48 hours and 72 hours (after 24 hours)

Structure (SMILES): CCOCc1nc2c(N)nc3ccccc3c2n1CC(C)(C)O [R848, resiquimod]
- cytotoxicity (cell viability) (CT26 cells): not significantly cytotoxic
- IL-6 secretion (BMDCs; [1]): notable levels
- TNF-α secretion (BMDCs; [1]): notable levels
- IL-6 secretion (BMDCs; [2]): do not change significantly
- TNF-α secretion (BMDCs; [2]): do not change significantly
- growth of the primary tumor (CT26 primary tumor): slightly delayed
